Results taken from publication PMC10254233, “Synthesis and In Vitro Biological Evaluation of p-Carborane-Based Di-tert-butylphenol Analogs” (Molecules, 2023).

What was measured:
[1] = tested on: HCT116 colorectal carcinoma; experiment: Cell viability, MTT assay, HCT116; assay type: cell-based, human; conditions: 72 h, mean ± SD
Method: (§1) Five human cell lines (A375 melanoma, A549 lung adenocarcinoma, HCT116 and HT29 colorectal carcinoma, MDA-MB-231 triple-negative breast adenocarcinoma) were used to study the antitumor effects of the di-tert-butylphenols and their respective carborane analogs. All selected cell lines were derived from inflammation-associated tumors.
(§2) After the incubation period, the supernatant was discarded from the wells, and the cells were washed two times with 200 µL of PBS. Next, MTT solution at a final concentration of 0.5 mg/mL was added and incubated at 37 °C until purple formazan crystals were formed (30 min to one hour). After incubation, the dye was discarded. In order to dissolve the formed formazan crystals DMSO was added, and the absorbance was measured at λmax = 540 nm, with the reference/background wavelength of 670 nm. All results are expressed as a percentage of the control value which was arbitrary set to 100%. After 72 h treatment, cells were washed with 200 µL of PBS and fixed with 4% paraformaldehyde (PFA) for 15 min at room temperature (RT). Next, cells were stained with 1% CV solution. After 20 min, cells were washed in tap water and dried on air. Dye was dissolved in 33% acetic acid and the absorbance was measured at λmax = 540 nm, with the reference/background wavelength of 670 nm. Results were expressed as a percentage of the control value which was arbitrary set to 100%.
(§3) 1. General methods, materials, and procedures
(§4) 1.1.1. Reagents and cells
(§5) Reagents and cells were obtained from following manufacturers: Capricorn Scientific GmbH (Hessen, Germany) – Culture medium RPMI-1640, Dulbecco's Modified Eagle Medium (DMEM), and fetal bovine serum (FBS). Serva (Heidelberg, Germany) – Paraformaldehyde (PFA). Sigma (St. Louis, MO, USA) – Ethylenediaminetetraacetic acid (EDTA), Dimethyl sulfoxide (DMSO), chloroquine, CV, Triton X-100, RNase, PI, PBS, 3-MA, CFSE, and fluorescent mounting medium. AppliChem (MO, USA) –MTT. Thermo Fisher Scientific (Waltham, MA, USA) – DHR. R&D Systems (Minneapolis, MN, USA) – ApoStat. BD (Pharmingen, San Diego, SAD) – Annexin V-FITC (AnnV). Biological Industries (Cromwell, CT, USA) – Penicillin Streptomycin solution. American Type Culture Collection (ATCC, Manassas, Virginia, USA) – Human lung carcinoma (A549), human breast adenocarcinoma (MDA-MB-231), human colorectal ade-nocarcinoma (HT-29), human colorectal carcinoma (HCT116) and human melanoma (A375).
(§6) Cell lines (A375, HCT116, HT-29 and MDA-MB-231) were cultivated in HEPES-buffered RPMI-1640 medium while A549 cell line was cultivated in Dulbecco's Modified Eagle Medium (DMEM) which were previously supplemented with 10% heat-inactivated FBS, penicillin (100 units/mL), and streptomycin (100 μg/mL). All cells were kept at 37 °C in a humidified atmosphere with 5% CO2. For viability determi-nation cells were seeded at following densities in 96-well plates: 4 x 10^3 cells/well (A375, HT-29 and MDA-MB-231), 5 x 10^3 cells/well (HCT116), and 3 x 10^3 cells/well (A549). […]
Afterwards, cells were washed with phosphate-buffered saline (PBS) and stained with AnnV (15 μg/mL) and PI (15 μg/mL). […]
PBS and analyzed using flow cytometry. HCT116 cells were stained with 1 µg/mL of AO solution for 15 min at 37 °C to detect the presence of autophagic cell death. Afterwards cells were washed with PBS, resuspended and analyzed by flow cytometry (CyFlow® Space Partec using the PartecFloMax® software

ovine COX-1 = molecular target: T1, ovine COX-1 (Ovis aries, UniProt P05979); experiment: COX Fluorescent Inhibitor Screening Assay, COX-1; assay type: biochemical; conditions: in duplicate
T1 construct: purchased Cayman Chemical Company
T1 sequence (P05979 25-600): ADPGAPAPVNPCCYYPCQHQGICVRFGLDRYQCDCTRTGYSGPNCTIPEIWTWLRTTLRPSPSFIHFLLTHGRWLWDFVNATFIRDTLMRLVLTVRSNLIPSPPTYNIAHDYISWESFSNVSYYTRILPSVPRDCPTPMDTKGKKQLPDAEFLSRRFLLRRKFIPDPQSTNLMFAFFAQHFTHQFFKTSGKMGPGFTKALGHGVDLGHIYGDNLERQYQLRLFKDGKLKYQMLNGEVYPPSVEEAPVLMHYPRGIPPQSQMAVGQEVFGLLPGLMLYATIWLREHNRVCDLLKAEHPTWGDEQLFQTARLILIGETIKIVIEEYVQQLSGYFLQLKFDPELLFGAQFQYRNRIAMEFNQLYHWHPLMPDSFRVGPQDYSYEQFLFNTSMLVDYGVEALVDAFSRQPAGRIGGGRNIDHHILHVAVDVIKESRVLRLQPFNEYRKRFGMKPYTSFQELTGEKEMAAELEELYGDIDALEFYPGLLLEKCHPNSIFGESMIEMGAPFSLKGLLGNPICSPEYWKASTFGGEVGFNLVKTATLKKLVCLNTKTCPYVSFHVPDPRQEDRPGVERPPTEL
Method: COX inhibition activity against ovine COX-1 and human COX-2 was determined using the fluorescence-based COX assay COX Fluorescent Inhibitor Screening Assay Kit (Cayman Chemical Company, Ann Arbor, MI, USA) according to the manufacturer’s instructions as previously reported by us. All compounds were screened at a concentration of 100 µM in duplicate.

[2] = NMR spectroscopic stability study in aqueous DMSO-d6; assay type: physicochemical; conditions: room temperature, in air, four weeks, 1H and 11B{1H} NMR
Text: Solubility and chemical stability in organic solvents, such as aqueous dimethyl sulfoxide (DMSO), are crucial for biological investigations. Therefore, the stability of the p-carborane-containing compounds R-830-Cb, S-2474-Cb, KME-4-Cb, and E-5110-Cb in aqueous DMSO-d6 at room temperature in air was studied by ^1H- and ^11B{^1H}-NMR spectroscopy over four weeks and confirmed that all compounds are stable (see Supplementary Materials, Figure S24).

[3] = tested on: MDA-MB-231 triple-negative breast adenocarcinoma; experiment: Cell viability, MTT assay, MDA-MB-231; assay type: cell-based, human; conditions: 72 h, mean ± SD
Method: as §1, §2, §3, §4, §5, §6
Afterwards, cells were washed with phosphate-buffered saline (PBS) and stained with AnnV (15 μg/mL) and PI (15 μg/mL). After 15 min incubation at room temperature (RT) protected from light the cells were resuspended in AnnV-binding buffer and analysed using flow cytom-etry. HCT116 cells were incubated with pan-caspase inhibitor Apostat for 30 min at 37 °C to determine whether detected apoptosis was mediated by caspase activation. Afterwards, cells were washed with PBS and analyzed using flow cytometry. HCT116 cells were stained with 1 µg/mL of AO solution for 15 min at 37 °C to detect the presence of autophagic cell death. Afterwards cells were washed with PBS, resuspended and analyzed by flow cytometry (CyFlow® Space Partec using the PartecFloMax® software

| Substance | IC50 [1] [µM] | % Inhibition at 100 µM COX-1 (ovine COX-1) | stability in aqueous DMSO-d6 [2] | IC50 [3] [µM] |
| --- | --- | --- | --- | --- |
| 1-Hydroxy-12-(thiophen-2′-carbonyl)-1,12-dicarba-closo-dodecaborane(12) [Compound R-830-Cb] | 40.9 ± 3.1 | 18% | stable | 46.5 ± 0.1 |
| (3E)-1-Hydroxy-12-(methylene-[1′-methoxypyrrolidine-2′-one])-1,12-dicarba-closo-dodecaborane(12) [Compound E-5110-Cb] | 144 ± 10.5 | n.i. (n.i. = no inhibition (%inhibition below 5%)) | stable | – |
| (3E)-1-Hydroxy-12-(methylene-[2′-ethylisothiazolidine-1′,1′-dioxide])-1,12-dicarba-closo-dodecaborane(12) [Compound S-2474-Cb] | 108 ± 11.5 | n.i. (n.i. = no inhibition (%inhibition below 5%)) | stable | > 200 |
| (3E)-1-Hydroxy-12-(methylene-[dihydrofurane-2′(3H)-one])-1,12-dicarba-closo-dodecaborane(12) [KME-4-Cb] | 88.5 ± 4.3 | 26% | stable | 120 ± 3.9 |
